Some test systems named below: Candida tropicalis; Candida albicans; Vibrio parahaemolyticus; Lactococcus garvieae; Vibrio alginolyticus; Streptococcus iniae; Vibrio harveyi.
What all share (assay): ≥ marks a high value that may be exact or a test limit, other limits are often not marked, values filed in µg/mL are converted to µM
Experiment [1] relates to Pseudomonas aeruginosa ATCC 27853.
The subject of experiment [2] is Staphylococcus aureus NCTC 10788.
In experiment [3] the test system is Staphylococcus aureus ATCC 25923.
Experiment [4] has as its system Enterococcus faecalis NCTC 12697.
In experiment [5] the test system is Enterococcus faecalis ATCC 29212.
Experiment [6] relates to Escherichia coli NCTC 10418.
The subject of experiment [7] is Escherichia coli ATCC 25922.
In experiment [8] the test system is Candida albicans ATCC 1023.
In experiment [9] the test system is Vibrio alginolyticus BCRC 12829.
For experiment [10], the system named is Staphylococcus aureus BCRC 10781.
The test system of experiment [11] is Vibrio parahaemolyticus BCRC 10806.
For experiment [12], the system named is Escherichia coli BCRC 10675.
Experiment [13] has as its system Pseudomonas aeruginosa BCRC 10944.
Experiment [14] has as its system Yersinia enterocolitica BCRC 13999.
Experiment [15] concerns Listeria monocytogenes BCRC 14845.
The subject of experiment [16] is Enterobacter cloacae BCRC 10401.
In experiment [17] the test system is Streptococcus equinus BCRC 14729.
In experiment [18] the test system is Staphylococcus xylosus BCRC 12930.
Experiment [19] concerns Klebsiella aerogenes BCRC 10370.
Experiment [20] relates to Klebsiella oxytoca BCRC 13985.
Experiment [21] deals with Staphylococcus aureus BCRC 10780.
For experiment [22], the system named is Vibrio anguillarum serotype O1.

Converted amounts (≈) assume the structure as drawn.

In general, MIC refers to the lowest concentration found to suppress growth. Higher therefore signals a less susceptible organism.

Take `CSCC[C@H](NC(=O)[C@H](CC(=O)O)NC(=O)[C@@H](NC(=O)[C@@H](NC(=O)[C@H](C)NC(=O)[C@H](CC(N)=O)NC(=O)[C@H](CC(C)C)NC(=O)[C@H](C)NC(=O)[C@H](C)NC(=O)[C@H](CCCCN)NC(=O)CNC(=O)[C@H](C)NC(=O)[C@H](C)NC(=O)[C@H](CCCCN)NC(=O)CNC(=O)[C@@H](NC(=O)[C@H](CC(N)=O)NC(=O)[C@H](CCCCN)NC(=O)[C@H](CC(C)C)NC(=O)[C@H](CC(C)C)NC(=O)[C@@H](NC(=O)[C@H](CCCCN)NC(=O)[C@H](Cc1c[nH]c2ccccc12)NC(=O)[C@H](CC(C)C)NC(=O)[C@H](C)N)[C@@H](C)O)C(C)C)C(C)C)[C@@H](C)O)C(=O)N[C@H](C(=O)N[C@@H](CC(N)=O)C(=O)N[C@@H](CCC(N)=O)C(=O)O)C(C)C` [ALWKTLLKNVGKAAGKAALNAVTDMVNQ]: the MIC in experiment [1] was 40 µM (≈ 117 µg/mL); in [2] it was 1.3 µM (≈ 3.8 µg/mL); in experiment [3] it was 1.3 µM (≈ 3.8 µg/mL); in experiment [4], 10 µM (≈ 29.3 µg/mL); against Candida tropicalis, 10.9 µM (≈ 31.9 µg/mL); in experiment [5], 10 µM (≈ 29.3 µg/mL). Besides, the MIC in experiment [6] was 2.5 µM (≈ 7.32 µg/mL); in experiment [7], 2.5 µM (≈ 7.32 µg/mL); against Candida albicans it was 21.8 µM (≈ 63.8 µg/mL); in experiment [8], 10.9 µM (≈ 31.9 µg/mL).

As to `CC[C@H](C)[C@H](NC(=O)[C@H](CCCCN)NC(=O)[C@@H](NC(=O)[C@@H](NC(=O)[C@@H](NC(=O)[C@H](CCCCN)NC(=O)[C@@H](NC(=O)[C@@H](NC(=O)[C@H](CCCCN)NC(=O)[C@H](CCCCN)NC(=O)[C@H](C)NC(=O)[C@H](Cc1ccc(O)cc1)NC(=O)[C@@H](NC(=O)[C@H](C)NC(=O)CN)[C@@H](C)O)[C@@H](C)CC)[C@@H](C)CC)[C@@H](C)O)[C@@H](C)CC)[C@@H](C)O)C(=O)N[C@@H](C)C(=O)N[C@H](C(=O)N[C@H](C(=O)N[C@@H](C)C(=O)N[C@@H](Cc1c[nH]c2ccccc12)C(=O)O)[C@@H](C)O)[C@@H](C)O` [GATYAKKIIKTITKIATTAW], the MIC was ≥ 58.7 µM in experiment [9]; ≥ 58.7 µM in experiment [10]; ≥ 58.7 µM in [11]; 7.34 µM (≈ 16 µg/mL) in experiment [12]; 29.4 µM (≈ 64 µg/mL) against Vibrio parahaemolyticus; 29.4 µM (≈ 64 µg/mL) in [13]. Besides, the MIC in experiment [14] was ≥ 58.7 µM; against Lactococcus garvieae it was ≥ 58.7 µM; against Vibrio alginolyticus, 29.4 µM (≈ 64 µg/mL); in experiment [15], ≥ 58.7 µM; in [16], 14.7 µM (≈ 32 µg/mL); in experiment [17], ≥ 58.7 µM. Also, the MIC was 29.4 µM (≈ 64 µg/mL) in experiment [18]; 29.4 µM (≈ 64 µg/mL) in experiment [19]; 29.4 µM (≈ 64 µg/mL) in experiment [20]; ≥ 58.7 µM against Streptococcus iniae; 29.4 µM (≈ 64 µg/mL) in the experiment on Vibrio harveyi; ≥ 58.7 µM in [21]. For the same molecule, the MIC in [22] is 29.4 µM (≈ 64 µg/mL).

Regarding `CC[C@H](C)[C@H](NC(=O)[C@H](C)NC(=O)[C@@H](NC(=O)[C@H](Cc1ccc(O)cc1)NC(=O)[C@@H](NC(=O)[C@H](CCCCN)NC(=O)[C@H](CCCCN)NC(=O)[C@H](C)NC(=O)[C@H](Cc1ccccc1)NC(=O)[C@H](CC(N)=O)NC(=O)[C@H](CC(C)C)NC(=O)[C@@H](NC(=O)[C@H](CCCCN)NC(=O)[C@H](CCCCN)NC(=O)[C@H](CC(C)C)NC(=O)[C@H](Cc1ccccc1)NC(=O)[C@@H](NC(=O)[C@H](CC(C)C)NC(=O)CN)[C@@H](C)O)[C@@H](C)CC)[C@@H](C)CC)[C@@H](C)O)C(=O)N[C@@H](Cc1c[nH]c2ccccc12)C(=O)O` [GLTFLKKILNFAKKIYTAIW], the MIC came out at 13.5 µM (≈ 32 µg/mL) in experiment [9]; 6.75 µM (≈ 16 µg/mL) in experiment [10]; 13.5 µM (≈ 32 µg/mL) in experiment [11]; 13.5 µM (≈ 32 µg/mL) in experiment [12]; 3.38 µM (≈ 8 µg/mL) with Vibrio parahaemolyticus; 13.5 µM (≈ 32 µg/mL) in experiment [13]. Moreover, the MIC in experiment [14] was 27 µM (≈ 64 µg/mL); with Lactococcus garvieae, 13.5 µM (≈ 32 µg/mL); in the experiment on Vibrio alginolyticus it was 3.38 µM (≈ 8 µg/mL); in experiment [15], 3.38 µM (≈ 8 µg/mL); in experiment [16], 6.75 µM (≈ 16 µg/mL); in experiment [17], ≥ 54 µM. Moreover, the minimal inhibitory concentration (MIC) in [18] is 6.75 µM (≈ 16 µg/mL); in experiment [19] it was 6.75 µM (≈ 16 µg/mL); in experiment [20], ≥ 54 µM; in the experiment on Streptococcus iniae it was 13.5 µM (≈ 32 µg/mL); against Vibrio harveyi it was 3.38 µM (≈ 8 µg/mL); in experiment [21], 6.75 µM (≈ 16 µg/mL). In [22], this molecule came in with a minimum inhibitory concentration (MIC) of 3.38 µM (≈ 8 µg/mL).

`CC[C@H](C)[C@H](NC(=O)[C@H](Cc1ccc(O)cc1)NC(=O)[C@H](CCCCN)NC(=O)[C@H](Cc1ccccc1)NC(=O)[C@H](Cc1ccccc1)NC(=O)[C@H](CCCCN)NC(=O)[C@H](CC(N)=O)NC(=O)[C@@H](NC(=O)[C@H](Cc1ccc(O)cc1)NC(=O)[C@H](CCCCN)NC(=O)[C@@H](NC(=O)[C@@H](NC(=O)[C@H](CC(N)=O)NC(=O)[C@H](CC(N)=O)NC(=O)[C@@H](NC(=O)[C@H](Cc1ccc(O)cc1)NC(=O)[C@H](CCCCN)NC(=O)[C@H](Cc1ccc(O)cc1)NC(=O)CN)[C@@H](C)CC)[C@@H](C)CC)[C@@H](C)CC)[C@@H](C)CC)C(=O)N[C@@H](Cc1c[nH]c2ccccc12)C(=O)O` [GYKYINNIIKYINKFFKYIW]: the MIC came out at 12.2 µM (≈ 32 µg/mL) in experiment [9]; 3.04 µM (≈ 8 µg/mL) in experiment [10]; 12.2 µM (≈ 32 µg/mL) in experiment [11]; 6.09 µM (≈ 16 µg/mL) in experiment [12]; 3.04 µM (≈ 8 µg/mL) against Vibrio parahaemolyticus; 12.2 µM (≈ 32 µg/mL) in experiment [13]. For the same molecule, the MIC in experiment [14] was ≥ 48.7 µM; against Lactococcus garvieae, ≥ 48.7 µM; in the experiment on Vibrio alginolyticus, 3.04 µM (≈ 8 µg/mL); in experiment [15], 12.2 µM (≈ 32 µg/mL); in [16], 6.09 µM (≈ 16 µg/mL); in experiment [17] it was ≥ 48.7 µM. For the same molecule, the MIC in experiment [18] was found to be 3.04 µM (≈ 8 µg/mL); in experiment [19], 6.09 µM (≈ 16 µg/mL); in [20], 6.09 µM (≈ 16 µg/mL); with Streptococcus iniae it was 12.2 µM (≈ 32 µg/mL); against Vibrio harveyi, 3.04 µM (≈ 8 µg/mL); in experiment [21] it was 3.04 µM (≈ 8 µg/mL). The molecule further came in with an MIC in experiment [22] of 3.04 µM (≈ 8 µg/mL).

The record behind these values is DBAASP.
